Patent US9562899B2, “Method of detecting OXA-048 carbapenemase producing bacteria” (BIOMÉRIEUX, priority 2012, dated 2017)

Columns and labels:
Format in all cases: cell-based, Enterobacteriaceae
NDM-1 strains = conditions: class B CPEs of NDM type; proportionally to the EDTA concentration used
Description: (§1) Optimization of the Detection Specificity by Introducing Specific Inhibitors Inhibition of Class B Strains (NDM, VIM, IMP) by Adding EDTA
(§2) Identical to that used to determine the temocillin MICs by agar dilution (example 1).
(§3) For each temocillin concentration, the following concentrations of active EDTA will be tested in the form of disodium EDTA: 0, 1.77, 2.12, 2.47 and 2.83 mmol/l.
(§4) Method: identical to the method used in example 1.

VIM strains = conditions: class B CPEs of VIM type; proportionally to the EDTA concentration used
Description: as §1, §2, §3, §4

[1] = tested on: strains with impermeability-mediated resistance (IR); conditions: strains with impermeability-mediated resistance to carbapenems (IR)
Description: as §1, §2, §3, §4

O=C(O)CN(CCN(CC(=O)O)CC(=O)O)CC(=O)O [EDTA]
effect of EDTA on temocillin MIC (NDM-1 strains): decrease in their MIC
effect of EDTA on temocillin MIC (VIM strains): decrease in their MIC
effect of EDTA on temocillin MIC [1]: slight increase in the MICs
